Results: patent US4097596A, “Inhalation therapy for relieving bronchial spasm using quaternary salts of promethazine” (American Home Products Corporation, priority 1976, dated 1978)
Where “and” joins values, the source holds several entries; their conditions need not be identical. Identical values can stand only once. Counter-ions that a name gives are not always drawn. Like-named read-outs stand apart in the source and are kept apart here.

Legend:
[1] = tested on: acetylcholine; assay: Inhibition of acetylcholine-induced bronchoconstriction by aerosol, anesthetized guinea pigs; format: in vivo
Protocol: (§1) Anesthetized (Pentobarbitol-urethane) guinea pigs were artificially respired at a constant positive air pressure (Starling miniature pump) and changes in tidal air during inspiration were recorded, according to the method of Rosenthale et al., Int. Arch. Pharmacol., 172, 91 (1968). The bronchoconstrictor agents acetylcholine and histamine were administered intravenously at doses of 1 to 30 μg/kg. depending on each animal's sensitivity to these compounds, and control responses to acetylcholine and histamine were thus established. Bronchoconstrictor agents raise the resistance of the lungs to inflation thereby decreasing the tidal air flow. A solution of the test compound was then administered by aerosol, in physiological saline or distilled water, and the animals were then challenged again with acetylcholine or histamine and the degree of inhibition of bronchoconstriction by the test compound was thus determined.

[2] = tested on: histamine; assay: Inhibition of histamine-induced bronchoconstriction by aerosol, anesthetized guinea pigs; format: in vivo
Protocol: as §1

[3] = cited from earlier work
[4] = tested on: smooth muscle; details: cited from earlier work
[5] = tested on: cholinergic-induced bronchoconstriction; assay: Effect of drugs on cholinergic-induced bronchoconstriction in the cat (aerosol); format: in vivo; details: as cation, mean ± S.E.
Protocol: Cats of either sex were anesthetized and respiration was arrested by the administration of an intravenous infusion of 1 mg/ml/min of succinylcholine chloride. The animals were artificially respired with a Harvard pump. A neostigmine methylsulfate solution (0.1 mg/ml) was infused intravenously at a rate of 1 ml/min until maximal or complete bronchoconstriction occurred, but the experiment was not begun until a stable state was attained. The respiratory flow was measured with a Fleisch pneumotachograph and a differential pressure transducer. Transpulmonary pressure was measured with a differential pressure transducer bridged between the trachea and the intrapleural space. Pulmonary airway resistance and compliance was measured by a modification of the Mead & Whittenberger electronic subtraction method using the Hewlett-Packard respiratory pre-amplifier or the isovolumetric method using the Buxco Pulmonary mechanics computer [Rosenthale et al., J. Pharmacol. Exp. Ther., 178, 541, (1971)].
Drugs were administered as cation as an aerosol by means of a Monaghan ultrasonic nebulizer. The dosage was varied by adjusting the concentration of the solution. Activity was measured by the ability of the drug to reverse the increased airway resistance and decreased compliance characteristic of cholinergic stimulation induced by succinylcholine and neostigmine.

[6] = 0.15 μg as cation, distilled water
[7] = 1.5 μg as cation, distilled water
[8] = 15.0 μg as cation, distilled water
[9] = 15.0 μg as cation, physiological saline
[10] = 0.1 μg, listed as Promethazine methyl chloride
[11] = 1.0 μg, listed as Promethazine methyl chloride
[12] = 10.0 μg, listed as Promethazine methyl chloride
[13] = 100.0 μg, listed as Promethazine methyl chloride
[14] = 1.5 μg as cation, physiological saline
[15] = 0.1 μg, listed as Promethazine methyl iodide
[16] = 1.0 μg, listed as Promethazine methyl iodide
[17] = 10.0 μg, listed as Promethazine methyl iodide
[18] = 100.0 μg, listed as Promethazine methyl iodide

| SMILES | Mean % Inhibition (±S.E.) vs. Acetylcholine [1, 6] | Mean % Inhibition (±S.E.) vs. Acetylcholine [1, 7] | Mean % Inhibition (±S.E.) vs. Acetylcholine [1, 8] | Mean % Inhibition (±S.E.) vs. Histamine [2, 9] | Mean % Inhibition (±S.E.) vs. Acetylcholine [1, 9] | Mean % Inhibition (±S.E.) vs. Histamine [2, 8] | also measured |
| --- | --- | --- | --- | --- | --- | --- | --- |
| CC(CN1c2ccccc2Sc2ccccc21)[N+](C)(C)C (racemic) [CH3 / Br, dl-Trimethyl[1-Methyl-2-(Phenothiazin-10-yl)Ethyl]Ammonium Bromide] | 0% | 38.75 (9.26) % | 99.0 (1.0) % | – | – | – | – |
| CC(CN1c2ccccc2Sc2ccccc21)[N+](C)(C)C (stereo not drawn) [CH"3 / I, l-Trimethyl[1-Methyl-2-(Phenothiazine-10-yl)Ethyl]Ammonium Iodide] | – | – | – | 95 (4.66) % | 81% | – | – |
| CCCC[N+](C)(C)C(C)CN1c2ccccc2Sc2ccccc21 (racemic) [n-C4 H9 / I, dl-N-n-Butyl,N,N,α-Trimethyl-10H-Phenothiazine-10-Ethanaminium Iodide] | 0% | 39.25 (2.53) % | 52.0 (6.35) % | – | – | 66.33 (2.96) % | – |
| CCC[N+](C)(C)C(C)CN1c2ccccc2Sc2ccccc21 (racemic) [n-C3 H7 / I, dl-N,N,α-Trimethyl-N-n-Propyl-10H-Phenothiazine-10-Ethanaminium Iodide] | 5.5 (3.20) % | 43.75 (6.51) % | 84.0 (6.56) % | – | – | 68.0 (8.14) % | – |
| CN[C@@H](C)[C@H](O)c1ccccc1 [ephedrine] | – | – | – | – | – | – | bronchodilator activity ([3]; aerosol): not by aerosol; bronchodilator activity ([3]; oral): orally active bronchodilator; smooth muscle relaxation [4]: smooth muscle relaxant |
| Cn1c(=O)c2[nH]cnc2n(C)c1=O [aminophylline] | – | – | – | – | – | – | bronchodilator activity ([3]; aerosol): inactive as a bronchodilator aerosol; bronchial smooth muscle relaxation ([4]; in vitro or by injection in vivo): can relax bronchial smooth muscle in vitro or by injection in vivo |
| CC[N+](C)(C)C(C)CN1c2ccccc2Sc2ccccc21 (racemic) [C2 H 5 / I, dl-N-Ethyl-N,N,α-Trimethyl-10H-Phenothiazine-10-Ethanaminium Iodide] | 20.0 (7.70) % | 62.75 (10.63) % | 98.66 (1.33) % | – | – | 78.67 (8.74) % | – |
| CC(CN1c2ccccc2Sc2ccccc21)[N+](C)(C)C (racemic) [CH3 / CH3 SO4, dl-Trimethyl[1-Methyl-2-(Phenothiazine-10-yl)Ethyl]Ammonium Methyl Sulfate] | – | – | – | 98% | 86% | – | – |
| CC(CN1c2ccccc2Sc2ccccc21)[N+](C)(C)C (racemic) [CH3 / Cl, dl-Trimethyl[1-Methyl-2-(Phenothiazin-10-yl)Ethyl]Ammonium Chloride] | – | 24.25 (10.21) % and 26.67 (6.77) % | 86.3 (10.37) % and 100 (0) % | – | – | 98.2 (1.8) % | Pulmonary Compliance % Protection [5, 10]: 6.8±4.1%; Pulmonary Resistance % Protection [5, 10]: 8.8±7.7%; Duration 50% (time to return to 50% of control constricted state) ([5]; 0.1 μg, methyl chloride done in 3 cats, listed as Promethazine methyl chloride): 2.7 ± 1.5 min; Duration 50% (time to return to 50% of control constricted state) [5, 11]: > 10 min; Pulmonary Compliance % Protection [5, 11]: 7.8±4.1%; Pulmonary Resistance % Protection [5, 11]: 17.2±2.8%; Duration 50% (time to return to 50% of control constricted state) [5, 12]: 21.0 ± 4.0 min; Pulmonary Compliance % Protection [5, 12]: 71.4±51.1%; Pulmonary Resistance % Protection [5, 12]: 50.0±4.6%; Duration 50% (time to return to 50% of control constricted state) [5, 13]: > 60 min; Pulmonary Compliance % Protection [5, 13]: 60.8±25.7%; Pulmonary Resistance % Protection [5, 13]: 72.8±2.1% |
| CC(CN1c2ccccc2Sc2ccccc21)[N+](C)(C)C (racemic) [CH3 / I, dl-trimethyl[1-methyl-2-(phenothiazin-10-yl)ethyl]ammonium iodide] | 20.0 (13.38) % | 47.0 (7.59) % | 98.66 (1.33) % | 97.5% and 98.66 (1.33) % | 99.0 (1.0) % and 99.3 (0.67) % | 98.0 (1.0) % | Mean % Inhibition (±S.E.) vs. Histamine ([2]; 0.15 μg as cation, physiological saline): 15.33 (6.96) %; Mean % Inhibition (±S.E.) vs. Histamine [2, 14]: 49.0 (11.14) %; Mean % Inhibition (±S.E.) vs. Acetylcholine [1, 14]: 62.38 (4.67) % and 62.75 (11.89) %; Pulmonary Compliance % Protection [5, 15]: 5.8±3.6%; Pulmonary Resistance % Protection [5, 15]: 14.3±1.1%; Duration 50% (time to return to 50% of control constricted state) ([5]; 0.1 μg, methyl chloride done in 3 cats, listed as Promethazine methyl iodide): 6.7 ± 3.2 min; Duration 50% (time to return to 50% of control constricted state) [5, 16]: 11.3 ± 2.0 min; Pulmonary Compliance % Protection [5, 16]: 3.7± .52%; Pulmonary Resistance % Protection [5, 16]: 39.4±2.1%; Duration 50% (time to return to 50% of control constricted state) [5, 17]: 21.2 ± 6.8 min; Pulmonary Compliance % Protection [5, 17]: 15.5±6.0%; Pulmonary Resistance % Protection [5, 17]: 48.5±3.3%; Duration 50% (time to return to 50% of control constricted state) [5, 18]: 46.1 ± 9.7 min; Pulmonary Compliance % Protection [5, 18]: 26.4±4.1%; Pulmonary Resistance % Protection [5, 18]: 78.1±4.4% |
| CC(CN1c2ccccc2Sc2ccccc21)[N+](C)(C)C (racemic) [CH3 / NO3, dl-Trimethyl[1-Methyl-2-(Phenothiazin-10-yl)Ethyl]Ammonium Nitrate] | 12.0 (6.26) % | 43.5 (10.33) % | 100 (0) % | – | – | – | – |
| CNC[C@H](O)c1ccc(O)c(O)c1 [epinephrine] | – | – | – | – | – | – | smooth muscle relaxation [4]: smooth muscle relaxant |
| CC(CN1c2ccccc2Sc2ccccc21)[N+](C)(C)C (stereo not drawn) [CH'3 / I, d-trimethyl[1-methyl-2-(phenothiazin-10-yl)ethyl]ammonium iodide] | – | – | – | 82% | 97% | – | – |
